From patent US10770169B2, “Method of providing a treatment to a subject based on a dynamic pathway map” (THE REGENTS OF THE UNIVERSITY OF CALIFORNIA, priority 2010, dated 2020)
Where two headings read alike, the source gives them in different places.

Test system: panel of 55 breast cancer cell lines
Test: Cell growth inhibition assay (Cell Titer Glo, 72 h, 9 doses; GI50, TGI, LC50)
Assay type: cell-based, human
Conditions: Homo sapiens, read-out: GI50 (converted)

For Cc1cncc2cccc(S(=O)(=O)N3CCCN(C(=O)CN)C[C@@H]3C)c12 [Glycyl-H-1152], the GI50 (AU565, AU565 cell line, censored GI50 values) was 7240 nM, the GI50 (AU565, cell line AU565) was 7240 nM and the GI50 (BT-20, BT20 cell line, censored GI50 values) was 7080 nM. The GI50 (BT-20, cell line BT20) was 7080 nM, the GI50 (BT-474, cell line BT474) was 66100 nM and the GI50 (BT-483, cell line BT483) was 44700 nM. The GI50 (CAMA-1, CAMA1 cell line, censored GI50 values) was 8130 nM, the GI50 (CAMA-1, cell line CAMA1) was 8130 nM and the GI50 (HCC38, HCC38 cell line, censored GI50 values) was 1020 nM. For the same compound, the GI50 (HCC38, cell line HCC38) was 1020 nM, the GI50 (HCC70, HCC70 cell line, censored GI50 values) was 813 nM and the GI50 (HCC70, cell line HCC70) was 813 nM. It also gave a GI50 (HCC1143, HCC1143 cell line, censored GI50 values) of 15800 nM, a GI50 (HCC1143, cell line HCC1143) of 15800 nM and a GI50 (HCC1187, HCC1187 cell line, censored GI50 values) of 832 nM. The GI50 (HCC1187, cell line HCC1187) was 832 nM, the GI50 (HCC1419, HCC1419 cell line, censored GI50 values) was 17000 nM and the GI50 (HCC1419, cell line HCC1419) was 17000 nM. For the same compound, the GI50 (HCC1428, cell line HCC1428) was 50100 nM, the GI50 (HCC1500, cell line HCC1500) was 66100 nM and the GI50 (HCC1937, cell line HCC1937) was 66100 nM. For the same compound, the GI50 (HCC1954, cell line HCC1954) was 33100 nM, the GI50 (HCC2185 cell line, censored GI50 values) was 2880 nM and the GI50 (MCF7, cell line MCF7) was 21400 nM. For the same compound, the GI50 (MDA-MB-134-VI, MDAMB134VI cell line, censored GI50 values) was 1170 nM, the GI50 (MDA-MB-175-VII, MDAMB175VII cell line, censored GI50 values) was 33100 nM and the GI50 (MDA-MB-231, MDAMB231 cell line, censored GI50 values) was 22900 nM. For the same compound, the GI50 (MDA-MB-231, cell line MDAMB231) was 22900 nM, the GI50 (MDA-MB-361, MDAMB361 cell line, censored GI50 values) was 33100 nM and the GI50 (MDA-MB-361, cell line MDAMB361) was 33100 nM. For the same compound, the GI50 (MDA-MB-415, MDAMB415 cell line, censored GI50 values) was 33100 nM, the GI50 (MDA-MB-415, cell line MDAMB415) was 33100 nM and the GI50 (MDA-MB-436, cell line MDAMB436) was 43700 nM. For the same compound, the GI50 (MDA-MB-453, MDAMB453 cell line, censored GI50 values) was 28200 nM, the GI50 (MDA-MB-453, cell line MDAMB453) was 28200 nM and the GI50 (MDA-MB-468, MDAMB468 cell line, censored GI50 values) was 2040 nM. The GI50 (MDA-MB-468, cell line MDAMB468) was 2040 nM, the GI50 (SK-BR-3, cell line SKBR3) was 46800 nM and the GI50 (SUM52PE, SUM52PE cell line, censored GI50 values) was 9120 nM. For the same compound, the GI50 (SUM52PE, cell line SUM52PE) was 9120 nM, the GI50 (SUM149PT, SUM149PT cell line, censored GI50 values) was 30200 nM and the GI50 (SUM149PT, cell line SUM149PT) was 30200 nM. The GI50 (SUM1315MO2, SUM1315MO2 cell line, censored GI50 values) was 11000 nM, the GI50 (SUM-159-PT, SUM159PT cell line, censored GI50 values) was 1740 nM and the GI50 (SUM-159-PT, cell line SUM159PT) was 1740 nM. For the same compound, the GI50 (T47D, T47D cell line, censored GI50 values) was 15100 nM, the GI50 (T47D, cell line T47D) was 15100 nM and the GI50 (UACC-812, UACC812 cell line, censored GI50 values) was 38000 nM. The GI50 (UACC-812, cell line UACC812) was 38000 nM, the GI50 (ZR-75-1, ZR751 cell line, censored GI50 values) was 3550 nM and the GI50 (ZR-75-1, cell line ZR751) was 3550 nM. For the same compound, the GI50 (ZR-75B, cell line ZR75B) was 66100 nM, the GI50 (cell line HCC2185) was 2880 nM and the GI50 (cell line HCC3153) was 33100 nM. For the same compound, the GI50 (cell line MDAMB134V) was 1170 nM, the GI50 (cell line MDAMB175V) was 33100 nM and the GI50 (cell line SUM1315MO) was 11000 nM.
In the case of NS(=O)(=O)OC[C@@H]1C[C@@H](n2ccc3c(N[C@H]4CCc5ccccc54)ncnc32)C[C@@H]1O [MLN4924], the GI50 (AU565, cell line AU565, censored GI50 values) was 182 nM, the GI50 (AU565, cell line AU565) was 182 nM and the GI50 (BT-20, cell line BT20, censored GI50 values) was 2750 nM. It also gave a GI50 (BT-20, cell line BT20) of 2750 nM, a GI50 (BT-474, cell line BT474, censored GI50 values) of 575 nM and a GI50 (BT-474, cell line BT474) of 575 nM. For the same compound, the GI50 (BT-483, cell line BT483, censored GI50 values) was 33100 nM, the GI50 (BT-483, cell line BT483) was 33100 nM and the GI50 (CAMA-1, cell line CAMA1, censored GI50 values) was 51.3 nM. It also gave a GI50 (CAMA-1, cell line CAMA1) of 51.3 nM, a GI50 (HCC38, cell line HCC38, censored GI50 values) of 27.5 nM and a GI50 (HCC38, cell line HCC38) of 27.5 nM. For the same compound, the GI50 (HCC70, cell line HCC70, censored GI50 values) was 33100 nM, the GI50 (HCC70, cell line HCC70) was 33100 nM and the GI50 (HCC1143, cell line HCC1143, censored GI50 values) was 245 nM. The GI50 (HCC1143, cell line HCC1143) was 245 nM, the GI50 (HCC1187, cell line HCC1187, censored GI50 values) was 501 nM and the GI50 (HCC1187, cell line HCC1187) was 501 nM. The GI50 (HCC1419, cell line HCC1419, censored GI50 values) was 22.9 nM, the GI50 (HCC1419, cell line HCC1419) was 22.9 nM and the GI50 (HCC1428, cell line HCC1428, censored GI50 values) was 117 nM. The GI50 (HCC1428, cell line HCC1428) was 117 nM, the GI50 (HCC1500, cell line HCC1500, censored GI50 values) was 11.7 nM and the GI50 (HCC1500, cell line HCC1500) was 11.7 nM. The GI50 (HCC1806, cell line HCC1806, censored GI50 values) was 21.4 nM, the GI50 (HCC1806, cell line HCC1806) was 21.4 nM and the GI50 (HCC1937, cell line HCC1937, censored GI50 values) was 2630 nM. The GI50 (HCC1937, cell line HCC1937) was 2630 nM, the GI50 (HCC1954, cell line HCC1954, censored GI50 values) was 4470 nM and the GI50 (HCC1954, cell line HCC1954) was 4470 nM. It also gave a GI50 (MDA-MB-134-VI, cell line MDAMB134VI, censored GI50 values) of 52.5 nM, a GI50 (MDA-MB-175-VII, cell line MDAMB175VII, censored GI50 values) of 427 nM and a GI50 (MDA-MB-415, cell line MDAMB415, censored GI50 values) of 74.1 nM. It also gave a GI50 (MDA-MB-415, cell line MDAMB415) of 74.1 nM, a GI50 (MDA-MB-436, cell line MDAMB436, censored GI50 values) of 269 nM and a GI50 (MDA-MB-436, cell line MDAMB436) of 269 nM. It also gave a GI50 (MDA-MB-453, cell line MDAMB453, censored GI50 values) of 2190 nM, a GI50 (MDA-MB-453, cell line MDAMB453) of 2190 nM and a GI50 (MDA-MB-468, cell line MDAMB468, censored GI50 values) of 204 nM. For the same compound, the GI50 (MDA-MB-468, cell line MDAMB468) was 204 nM, the GI50 (SK-BR-3, cell line SKBR3, censored GI50 values) was 151 nM and the GI50 (SK-BR-3, cell line SKBR3) was 151 nM. The GI50 (SUM52PE, cell line SUM52PE, censored GI50 values) was 398 nM, the GI50 (SUM52PE, cell line SUM52PE) was 398 nM and the GI50 (SUM149PT, cell line SUM149PT, censored GI50 values) was 191 nM. The GI50 (SUM149PT, cell line SUM149PT) was 191 nM, the GI50 (SUM1315MO2, cell line SUM1315MO2, censored GI50 values) was 33100 nM and the GI50 (SUM-159-PT, cell line SUM159PT, censored GI50 values) was 589 nM. For the same compound, the GI50 (SUM-159-PT, cell line SUM159PT) was 589 nM, the GI50 (T47D, cell line T47D, censored GI50 values) was 117 nM and the GI50 (T47D, cell line T47D) was 117 nM. It also gave a GI50 (UACC-812, cell line UACC812, censored GI50 values) of 1000 nM, a GI50 (UACC-812, cell line UACC812) of 1000 nM and a GI50 (ZR-75-1, cell line ZR751, censored GI50 values) of 33900 nM. For the same compound, the GI50 (ZR-75-1, cell line ZR751) was 33900 nM, the GI50 (ZR-75B, cell line ZR75B, censored GI50 values) was 145 nM and the GI50 (ZR-75B, cell line ZR75B) was 145 nM. The GI50 (cell line 600MPE, censored GI50 values) was 372 nM, the GI50 (cell line 600MPE) was 372 nM and the GI50 (cell line HCC2185, censored GI50 values) was 372 nM. For the same compound, the GI50 (cell line HCC2185) was 372 nM, the GI50 (cell line HCC3153, censored GI50 values) was 229 nM and the GI50 (cell line HCC3153) was 229 nM. It also gave a GI50 (cell line LY2, censored GI50 values) of 158 nM, a GI50 (cell line LY2) of 158 nM and a GI50 (cell line MDAMB134V) of 52.5 nM. It also gave a GI50 (cell line MDAMB175V) of 427 nM and a GI50 (cell line SUM1315MO) of 33100 nM.
